Data taken from patent US8735398B2 (Bristol-Myers Squibb Company, priority 2009, dated 2014).

Each compound was assayed on HCV 1b genotype (assay: HCV replicon assay (HCV-neo replicon cells, wild-type)). Details: HCV 1b genotype replicon; class symbol; read-out: EC50 Range against HCV 1b.
Format: cell-based, Hepatitis C virus
How it was run: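 HCV-neo replicon cells (wild-type) and replicon cells carrying NS5A resistance substitutions were treated with compounds; assay per O'Boyle et al. 2005, with luciferase-reporter read-out variants also used.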
In the case of `C[C@H](NC(=O)[C@](C)(O)c1ccccc1)C(=O)Nc1ccc(-c2cnc(-c3ccc(NC(=O)[C@H](C)NC(=O)[C@](C)(O)c4ccccc4)cc3)o2)cc1` [OL-57], the EC50 is reported as 4.57 to 99 nM.

Same assay, conditions: Hepatitis C virus, HCV 1b genotype replicon; class symbol; read-out: EC50 Range against HCV 1b
With `CC(=O)N[C@@H](C(=O)N1CCCC1C(=O)Nc1ccc(-c2cnc(-c3ccc(NC(=O)C4CCCN4C(=O)[C@H](NC(C)=O)c4ccccc4)cc3)o2)cc1)c1ccccc1` (stereo partly drawn) [OL-53, N,N′-(1,3-oxazole-2,5-diyldi-4,1-phenylene)bis(1-((2R)-2-acetamido-2-phenylacetyl)-2-pyrrolidinecarboxamide)] the EC50 was < 4.57 nM. With `C[C@H](NC(=O)[C@@H](O)c1ccccc1)C(=O)Nc1ccc(-c2cnc(-c3ccc(NC(=O)[C@H](C)NC(=O)[C@@H](O)c4ccccc4)cc3)o2)cc1` [OL-54, (2S,2′S)-N,N′-(1,3-oxazole-2,5-diyldi-4,1-phenylene)bis(2-(((2S)-2-hydroxy-2-phenylacetyl)amino)propanamide)] the EC50 was 4.57 to 99 nM. In the case of `C[C@H](NC(=O)[C@H](O)c1ccccc1)C(=O)Nc1ccc(-c2cnc(-c3ccc(NC(=O)[C@H](C)NC(=O)[C@H](O)c4ccccc4)cc3)o2)cc1` [OL-55, (2S,2′S)-N,N′-(1,3-oxazole-2,5-diyldi-4,1-phenylene)bis(2-(((2R)-2-hydroxy-2-phenylacetyl)amino)propanamide)], the EC50 is reported as < 4.57 nM. In the case of `C[C@H](NC(=O)[C@@](C)(O)c1ccccc1)C(=O)Nc1ccc(-c2cnc(-c3ccc(NC(=O)[C@H](C)NC(=O)[C@@](C)(O)c4ccccc4)cc3)o2)cc1` [OL-56, ((2S,2′S)-N,N′-(1,3-oxazole-2,5-diylbis(4,1-phenyleneimino((2S)-1-oxo-1,2-propanediyl)))bis(2-hydroxy-2-phenylpropanamide))], the EC50 is reported as < 4.57 nM. In the case of `CO[C@H]1C[C@@H](C(=O)Nc2ccc(-c3cnc(-c4ccc(NC(=O)[C@@H]5C[C@H](OC)CN5C(=O)[C@H](O)c5ccccc5)cc4)o3)cc2)N(C(=O)[C@H](O)c2ccccc2)C1` [OL-58, (2S,4S,2′S,4′S)-N,N′-(1,3-oxazole-2,5-diyldi-4,1-phenylene)bis(1-((2R)-2-hydroxy-2-phenylacetyl)-4-methoxy-2-pyrrolidinecarboxamide)], the EC50 is reported as < 4.57 nM. In the case of `CO[C@H]1C[C@@H](C(=O)Nc2ccc(-c3cnc(-c4ccc(NC(=O)[C@@H]5C[C@H](OC)CN5C(=O)[C@@H](c5ccccc5)N(C)C)cc4)o3)cc2)N(C(=O)[C@@H](c2ccccc2)N(C)C)C1` [OL-59, (2S,4S,2′S,4′S)-N,N′-(1,3-oxazole-2,5-diyldi-4,1-phenylene)bis(1-((2R)-2-(dimethylamino)-2-phenylacetyl)-4-methoxy-2-pyrrolidinecarboxamide)], the EC50 is reported as < 4.57 nM. Work on `CO[C@H]1C[C@@H](C(=O)Nc2ccc(-c3cnc(-c4ccc(NC(=O)[C@@H]5C[C@H](OC)CN5C(=O)C(NC(C)=O)c5ccccc5)cc4)o3)cc2)N(C(=O)C(NC(C)=O)c2ccccc2)C1` (stereo partly drawn) [OL-60, (2S,4S,2′S,4′S)-N,N′-(1,3-oxazole-2,5-diyldi-4,1-phenylene)bis(1-(acetamido(phenyl)acetyl)-4-methoxy-2-pyrrolidinecarboxamide)] yielded an EC50 of 4.57 to 99 nM. With `COc1cccc2c(C(=O)N3CCC[C@H]3C(=O)Nc3ccc(-c4cnc(-c5ccc(NC(=O)[C@@H]6CCCN6C(=O)[C@@H](c6ccccc6)N(C)C)cc5)o4)cc3)nc(Cl)cc12` [OL-61, (2S)-1-((3-chloro-5-methoxy-1-isoquinolinyl)carbonyl)-N-(4-(2-(4-((((2S)-1-((2R)-2-(dimethylamino)-2-phenylacetyl)-2-pyrrolidinyl)carbonyl)amino)phenyl)-1,3-oxazol-5-yl)phenyl)-2-pyrrolidinecarboxamide] the EC50 was 4.57 to 99 nM. Compound `O=C(Nc1ccc(-c2nnc(-c3ccc(NC(=O)[C@@H]4CCC(=O)N4C(=O)OCc4ccccc4)cc3)o2)cc1)[C@@H]1CCC(=O)N1C(=O)OCc1ccccc1` [RK-2, dibenzyl (2S,2′S)-2,2′-(1,3,4-oxadiazole-2,5-diylbis(4,1-phenylenecarbamoyl))bis(5-oxo-1-pyrrolidinecarboxylate)] has an EC50 of 1000 to 10000 nM. Compound `O=C(Nc1ccc(-c2nnc(-c3ccc(NC(=O)C4CCCN4C(=O)Cc4ccccc4)cc3)o2)cc1)C1CCCN1C(=O)Cc1ccccc1` (stereo not drawn) [RK-3, N,N′-(1,3,4-oxadiazole-2,5-diyldi-4,1-phenylene)bis(1-(phenylacetyl)-2-pyrrolidinecarboxamide)] has an EC50 of 100 to 999 nM. In the case of `O=C(Nc1ccc(-c2nnc(-c3ccc(NC(=O)[C@@H]4CCCCN4C(=O)OCc4ccccc4)cc3)o2)cc1)[C@@H]1CCCCN1C(=O)OCc1ccccc1` [RK-4, dibenzyl (2S,2′S)-2,2′-(1,3,4-oxadiazole-2,5-diylbis(4,1-phenylenecarbamoyl))di(1-piperidinecarboxylate)], the EC50 is reported as 100 to 999 nM. `O=C(Nc1ccc(-c2nnc(-c3ccc(NC(=O)[C@H]4CCCCN4C(=O)OCc4ccccc4)cc3)o2)cc1)[C@H]1CCCCN1C(=O)OCc1ccccc1` [RK-5, dibenzyl (2R,2′R)-2,2′-(1,3,4-oxadiazole-2,5-diylbis(4,1-phenylenecarbamoyl))di(1-piperidinecarboxylate)] gave an EC50 of 1000 to 10000 nM. Work on `COc1ccccc1C(=O)N1CCC[C@H]1C(=O)Nc1ccc(-c2nnc(-c3ccc(NC(=O)[C@@H]4CCCN4C(=O)c4ccccc4OC)cc3)o2)cc1` [RK-6, (2S,2′S)-N,N′-(1,3,4-oxadiazole-2,5-diyldi-4,1-phenylene)bis(1-(2-methoxybenzoyl)-2-pyrrolidinecarboxamide)] yielded an EC50 of 100 to 999 nM. Work on `COc1cccc(C(=O)N2CCC[C@H]2C(=O)Nc2ccc(-c3nnc(-c4ccc(NC(=O)[C@@H]5CCCN5C(=O)c5cccc(OC)c5)cc4)o3)cc2)c1` [RK-7, (2S,2′S)-N,N′-(1,3,4-oxadiazole-2,5-diyldi-4,1-phenylene)bis(1-(3-methoxybenzoyl)-2-pyrrolidinecarboxamide)] yielded an EC50 of 100 to 999 nM. `CCOc1ccccc1C(=O)N1CCC[C@H]1C(=O)Nc1ccc(-c2nnc(-c3ccc(NC(=O)[C@@H]4CCCN4C(=O)c4ccccc4OCC)cc3)o2)cc1` [RK-8, (2S,2′S)-N,N′-(1,3,4-oxadiazole-2,5-diyldi-4,1-phenylene)bis(1-(2-ethoxybenzoyl)-2-pyrrolidinecarboxamide)] showed an EC50 of 1000 to 10000 nM. `CCc1ccccc1C(=O)N1CCC[C@H]1C(=O)Nc1ccc(-c2nnc(-c3ccc(NC(=O)[C@@H]4CCCN4C(=O)c4ccccc4CC)cc3)o2)cc1` [RK-9, (2S,2′S)-N,N′-(1,3,4-oxadiazole-2,5-diyldi-4,1-phenylene)bis(1-(2-ethylbenzoyl)-2-pyrrolidinecarboxamide)] showed an EC50 of 100 to 999 nM. With `O=C(Nc1ccc(-c2nnc(-c3ccc(NC(=O)[C@@H]4CCCN4C(=O)c4ccc5ccccc5n4)cc3)o2)cc1)[C@@H]1CCCN1C(=O)c1ccc2ccccc2n1` [RK-10, (2S,2′S)-N,N′-(1,3,4-oxadiazole-2,5-diyldi-4,1-phenylene)bis(1-(2-quinolinylcarbonyl)-2-pyrrolidinecarboxamide)] the EC50 was 1000 to 10000 nM. `COC(C(=O)N1CCC[C@H]1C(=O)Nc1ccc(-c2nnc(-c3ccc(NC(=O)[C@@H]4CCCN4C(=O)C(OC)c4ccccc4)cc3)o2)cc1)c1ccccc1` (stereo partly drawn) [RK-11, (2S,2′S)-N,N′-(1,3,4-oxadiazole-2,5-diyldi-4,1-phenylene)bis(1-(methoxy(phenyl)acetyl)-2-pyrrolidinecarboxamide)] gave an EC50 of 100 to 999 nM. In the case of `O=C(Nc1ccc(-c2nnc(-c3ccc(NC(=O)[C@@H]4CCCN4C(=O)c4cccc(Cl)n4)cc3)o2)cc1)[C@@H]1CCCN1C(=O)c1cccc(Cl)n1` [RK-12, (2S,2′S)-N,N′-(1,3,4-oxadiazole-2,5-diyldi-4,1-phenylene)bis(1-((6-chloro-2-pyridinyl)carbonyl)-2-pyrrolidinecarboxamide)], the EC50 is reported as 1000 to 10000 nM. Compound `O=C(Nc1ccc(-c2nnc(-c3ccc(NC(=O)[C@@H]4CCCN4C(=O)c4ccco4)cc3)o2)cc1)[C@@H]1CCCN1C(=O)c1ccco1` [RK-13, (2S,2′S)-N,N′-(1,3,4-oxadiazole-2,5-diyldi-4,1-phenylene)bis(1-(2-furoyl)-2-pyrrolidinecarboxamide)] has an EC50 of 100 to 999 nM. Compound `O=C(Nc1ccc(-c2nnc(-c3ccc(NC(=O)[C@@H]4CCCN4C(=O)[C@@H]4CCCO4)cc3)o2)cc1)[C@@H]1CCCN1C(=O)[C@@H]1CCCO1` [RK-14, (2S,2′S)-N,N′-(1,3,4-oxadiazole-2,5-diyldi-4,1-phenylene)bis(1-((2S)-tetrahydro-2-furanylcarbonyl)-2-pyrrolidinecarboxamide)] has an EC50 of 100 to 999 nM. `O=C(Nc1ccc(-c2nnc(-c3ccc(NC(=O)[C@@H]4CCCN4C(=O)[C@H]4CCCO4)cc3)o2)cc1)[C@@H]1CCCN1C(=O)[C@H]1CCCO1` [RK-15, (2S,2′S)-N,N′-(1,3,4-oxadiazole-2,5-diyldi-4,1-phenylene)bis(1-((2R)-tetrahydro-2-furanylcarbonyl)-2-pyrrolidinecarboxamide)] was tested, and the EC50 was 1000 to 10000 nM. For `O=C(Nc1ccc(-c2nnc(-c3ccc(NC(=O)[C@@H]4CCCN4C(=O)[C@H](O)c4ccccc4)cc3)o2)cc1)[C@@H]1CCCN1C(=O)[C@H](O)c1ccccc1` [RK-16, (2S,2′S)-N,N′-(1,3,4-oxadiazole-2,5-diyldi-4,1-phenylene)bis(1-((2R)-2-hydroxy-2-phenylacetyl)-2-pyrrolidinecarboxamide)], the EC50 was < 4.57 nM. In the case of `O=C(Nc1ccc(-c2nnc(-c3ccc(NC(=O)[C@@H]4CCCN4C(=O)[C@@H](O)c4ccccc4)cc3)o2)cc1)[C@@H]1CCCN1C(=O)[C@@H](O)c1ccccc1` [RK-17, (2S,2′S)-N,N′-(1,3,4-oxadiazole-2,5-diyldi-4,1-phenylene)bis(1-((2S)-2-hydroxy-2-phenylacetyl)-2-pyrrolidinecarboxamide)], the EC50 is reported as 100 to 999 nM. For `O=C(Nc1ccc(-c2nnc(-c3ccc(NC(=O)[C@@H]4CCCN4C(=O)c4nc(Cl)cc5ccccc45)cc3)o2)cc1)[C@@H]1CCCN1C(=O)c1nc(Cl)cc2ccccc12` [RK-18, (2S,2′S)-N,N′-(1,3,4-oxadiazole-2,5-diyldi-4,1-phenylene)bis(1-((3-chloro-1-isoquinolinyl)carbonyl)-2-pyrrolidinecarboxamide)], the EC50 was 1000 to 10000 nM. Work on `COC(C(=O)N[C@@H](C)C(=O)Nc1ccc(-c2nnc(-c3ccc(NC(=O)[C@H](C)NC(=O)C(OC)c4ccccc4)cc3)o2)cc1)c1ccccc1` (stereo partly drawn) [RK-19, (2S,2′S)-N,N′-(1,3,4-oxadiazole-2,5-diyldi-4,1-phenylene)bis(2-((methoxy(phenyl)acetyl)amino)propanamide)] yielded an EC50 of 100 to 999 nM.

Same assay, conditions: Hepatitis C virus, HCV 1b genotype replicon; read-out: EC50 1b
For `CCOc1ccccc1C(=O)N1CCC[C@H]1C(=O)Nc1ccc(-c2nnc(-c3ccc(NC(=O)[C@@H]4CCCN4C(=O)c4ccccc4OCC)cc3)o2)cc1` [RK-8, (2S,2′S)-N,N′-(1,3,4-oxadiazole-2,5-diyldi-4,1-phenylene)bis(1-(2-ethoxybenzoyl)-2-pyrrolidinecarboxamide)], the EC50 was 1850 nM. `O=C(Nc1ccc(-c2nnc(-c3ccc(NC(=O)[C@@H]4CCCN4C(=O)c4cccc(Cl)n4)cc3)o2)cc1)[C@@H]1CCCN1C(=O)c1cccc(Cl)n1` [RK-12, (2S,2′S)-N,N′-(1,3,4-oxadiazole-2,5-diyldi-4,1-phenylene)bis(1-((6-chloro-2-pyridinyl)carbonyl)-2-pyrrolidinecarboxamide)] was tested, and the EC50 was 3960 nM. `O=C(Nc1ccc(-c2nnc(-c3ccc(NC(=O)[C@@H]4CCCN4C(=O)[C@H](O)c4ccccc4)cc3)o2)cc1)[C@@H]1CCCN1C(=O)[C@H](O)c1ccccc1` [RK-16, (2S,2′S)-N,N′-(1,3,4-oxadiazole-2,5-diyldi-4,1-phenylene)bis(1-((2R)-2-hydroxy-2-phenylacetyl)-2-pyrrolidinecarboxamide)] was tested, and the EC50 was < 5 nM.
